The values that follow come from ChEMBL document CHEMBL4024756, “Identification of 4-Phenoxyquinoline Based Inhibitors for L1196M Mutant of Anaplastic Lymphoma Kinase by Structure-Based Design” (J Med Chem, 2017).

What is called AUC(0-t) is the area under the concentration-time curve up to a stated or last time point. High values mean high exposure, low ones low exposure. As a reminder, the half-life is the time needed for the level to fall by half in the phase considered. Read a high half-life as slow decline. The bioavailability is the share of a dose that reaches the circulation, judged against a reference dose that is usually intravenous. A low value points to little systemic uptake. Usually Tmax stands for the time at which the peak concentration occurs. As usually defined, the Cmax is the peak of the concentration-time curve. The term IC50 denotes the concentration that gives 50% inhibition. Low readings indicate higher potency, high ones lower potency.

Series [1] can be described thus: AUClast in rat at 1 mg/kg, iv. The following applies: in vivo. Format: ADME, organism-based. More on the design: dose 1 mg/kg, time 0 - last, route intravenous.
Series [2] in a line: Half life in rat at 1 mg/kg, iv. The format is ADME, organism-based. The following applies: in vivo.
Series [3] is described as follows: Oral bioavailability in rat at 10 mg/kg. Format: ADME, organism-based. Particulars: in vivo.
Series [4] can be described thus: Tmax in rat at 10 mg/kg, po. Format: ADME, organism-based. The following applies: in vivo.
Series [5] can be described thus: Cmax in rat at 1 mg/kg, iv. The arrangement: dose 1 mg/kg, route intravenous. Format: ADME, organism-based. The following applies: in vivo.
Series [6] can be described thus: Cmax in rat at 10 mg/kg, po. The arrangement: dose 10 mg/kg, route oral. The following applies: in vivo. The format is ADME, organism-based.
Series [7] in a line: Tmax in rat at 1 mg/kg, iv. Format: ADME, organism-based. The following applies: in vivo.
A short description of series [8]: AUClast in rat at 10 mg/kg, po. The format is ADME, organism-based. Particulars: in vivo. More on the design: dose 10 mg/kg, time 0 - last, route oral.
In series [9] the target is Voltage-gated inwardly rectifying potassium channel KCNH2 (Homo sapiens, UniProt Q12809). Kind of series: Inhibition of human ERG by fluorescently labeled tracer binding method.
For another series, the system named is NCI-H2228. Kind of series: Antiproliferative activity against human NCI-H2228 cells after 72 hrs by MTT assay. Particulars: NCI-H2228, 72 h. A general note: Formazan colour is commonly taken as a measure of viable cells.
Series [10] is described as follows: Antiproliferative activity against human H2228/CR cells after 72 hrs by MTT assay. Particulars: NCI-H2228, 72 h.

Chain of Voltage-gated inwardly rectifying potassium channel KCNH2 (Q12809 whole entry): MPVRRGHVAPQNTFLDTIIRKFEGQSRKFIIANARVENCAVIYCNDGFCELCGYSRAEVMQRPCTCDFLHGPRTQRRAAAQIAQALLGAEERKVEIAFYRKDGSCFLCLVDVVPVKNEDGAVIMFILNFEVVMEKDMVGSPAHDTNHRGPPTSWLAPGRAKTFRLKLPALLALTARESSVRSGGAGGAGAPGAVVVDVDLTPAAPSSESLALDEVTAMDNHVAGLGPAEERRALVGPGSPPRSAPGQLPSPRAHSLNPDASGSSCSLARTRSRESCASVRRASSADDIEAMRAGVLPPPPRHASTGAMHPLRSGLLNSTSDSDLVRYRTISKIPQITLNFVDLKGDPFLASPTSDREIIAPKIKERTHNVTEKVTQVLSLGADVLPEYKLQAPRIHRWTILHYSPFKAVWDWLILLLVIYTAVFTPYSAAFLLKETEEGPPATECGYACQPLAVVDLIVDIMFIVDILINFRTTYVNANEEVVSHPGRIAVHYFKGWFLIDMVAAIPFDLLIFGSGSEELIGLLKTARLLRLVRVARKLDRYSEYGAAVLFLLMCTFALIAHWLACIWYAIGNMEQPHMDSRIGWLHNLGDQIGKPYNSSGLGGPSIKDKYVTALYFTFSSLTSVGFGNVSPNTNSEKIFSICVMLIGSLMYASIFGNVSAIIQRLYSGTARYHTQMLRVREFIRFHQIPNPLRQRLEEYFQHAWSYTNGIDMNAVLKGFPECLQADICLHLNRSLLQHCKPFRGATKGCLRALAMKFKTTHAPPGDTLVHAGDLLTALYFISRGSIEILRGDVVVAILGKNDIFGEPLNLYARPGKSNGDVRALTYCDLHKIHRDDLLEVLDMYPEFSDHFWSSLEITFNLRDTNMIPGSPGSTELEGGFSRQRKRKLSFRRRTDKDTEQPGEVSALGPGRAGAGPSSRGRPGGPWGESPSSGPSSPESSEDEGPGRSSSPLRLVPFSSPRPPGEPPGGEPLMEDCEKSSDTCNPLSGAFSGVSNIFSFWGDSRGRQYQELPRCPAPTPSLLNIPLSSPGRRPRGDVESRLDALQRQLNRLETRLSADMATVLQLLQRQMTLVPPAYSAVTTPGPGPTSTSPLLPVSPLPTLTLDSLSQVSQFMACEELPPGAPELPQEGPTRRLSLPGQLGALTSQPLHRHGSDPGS

Consider `Oc1ccc(Oc2ccnc3cc(-c4cnn(C5CCNCC5)c4)ccc23)cc1`, for which the exposure AUC(0-t) in series [1] stood at 155 ng·h/mL; in series [8], 384 ng·h/mL. The compound also showed a half-life in [2] of 3.5 h. This compound came in with a bioavailability in series [3] of 24.8%. The results for the Tmax in series [4] and in series [7] were 6 h and 6 min, respectively. In addition, the maximum concentration (Cmax) in series [5] is 83.5 ng/mL; in series [6], 78.4 ng/mL.
For `COc1ccc(Oc2ccnc3cc(-c4cnn(C5CCNCC5)c4)ccc23)cc1`, the area under the curve AUC(0-t) in series [1] amounted to 95.9 ng·h/mL; in series [8], 437 ng·h/mL. In series [2], this compound showed a half-life of 10.7 h. The same compound showed an IC50 in series [9] of 2.46 µM. The bioavailability in [3] is 45.5%. Moreover, the time to peak (Tmax) was found to be 4 h in series [4] and 6 min in series [7]. For the same compound, the Cmax amounted to 48.9 ng/mL in [5] and 83.9 ng/mL in series [6].
On to `Cc1ccc(Oc2ccnc3cc(-c4cnn(C5CCNCC5)c4)ccc23)cc1`, for which the AUC(0-t) in series [1] amounted to 166 ng·h/mL; in [8], 745 ng·h/mL. Moreover, the half-life in series [2] is 3.3 h. Besides, in series [3], the bioavailability amounted to 44.8%. Further, the results for the Tmax in [4] and in [7] were 4 h and 6 min, respectively. In addition, the figures for the Cmax in series [5] and in [6] were 94.1 ng/mL and 131 ng/mL, respectively.
For the compound `C[C@@H](Oc1cc(-c2cnn(C3CCNCC3)c2)cnc1N)c1c(Cl)ccc(F)c1Cl` [CRIZOTINIB], the IC50 worked out at 2.5 µM with NCI-H2228 and 10 µM in series [10].
